Like-named read-outs stand apart in the source and are kept apart here.
Legend:
Assay in all cases: microbe, parasite or virus in culture
Type in all cases: cell-based, Hepatitis C virus (HCV)
HCV replicon 1AY93H = conditions: Replicon Assay A
Procedure, shortened: (§1)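 Replicon cells were seeded at 2000 cells/well with test compound in 0.5% DMSO and 5% FBS, then harvested on day 3. Replicon RNA was measured by multiplex TaqMan real-time RT-PCR, using cyclophilin RNA as the endogenous control and quantified against standard curves of HCV replicon total RNA.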

HCV replicon 1A = conditions: Replicon Assay A
Procedure, shortened: as §1

HCV replicon 2B = conditions: Replicon Assay A
Procedure, shortened: as §1

HCV replicon 1AQ30D = conditions: Replicon Assay B
HCV replicon 1B = conditions: Replicon Assay B
[1] = Hepatitis C virus, read-out: 1A Y93H IC50, HCV replicon 1A Y93H
[2] = Hepatitis C virus, HCV replicon 1A
[3] = Hepatitis C virus, read-out: 2B IC50, HCV replicon 2B
[4] = Hepatitis C virus, read-out: 1A Q30D IC50, HCV replicon 1A Q30D
[5] = Hepatitis C virus, HCV replicon 1B
[6] = read-out: 1A Y93H IC50, replicon 1AY93H
[7] = Hepatitis C virus, read-out: 1A Q30D IC50 (nM), replicon 1AQ30D
[8] = replicon 1AY93H, read-out: 1A Y93H IC50
[9] = replicon 1AQ30D, read-out: 1A Q30D IC50
[10] = read-out: 1A Q30D IC50, replicon 1AQ30D

Structure (SMILES): CCc1ccc(C2Oc3cc(-c4cnc([C@@H]5CCCN5C(=O)[C@@H](NC(=O)OC)C(C)C)[nH]4)cc(C)c3-c3cc4cc(-c5cnc([C@@H]6CCCN6C(=O)[C@@H](NC(=O)OC)C6CCOC(C)(C)C6)[nH]5)ccc4n32)s1 (single isomer, unassigned) [Compound 547]
- IC50 (HCV replicon 1AY93H; [1]): 130 pM
- IC50 (HCV replicon 1A; [2]): 7 pM
- IC50 (HCV replicon 2B; [3]): 12 pM
- IC50 (HCV replicon 1AQ30D; [4]): 0.96 nM
- IC50 (HCV replicon 1B; [5]): 7 pM

Structure (SMILES): COC(=O)NC(C(=O)N1CCC[C@H]1c1ncc(-c2cc(F)c3c(c2)OC(c2ccc(C4CC4)s2)n2c-3cc3cc(-c4cnc([C@@H]5CCCN5C(=O)[C@@H](NC(=O)OC)C5CCOCC5)[nH]4)ccc32)[nH]1)C(C)(C)F (some centres unmarked) [Compound 168]
- IC50 (HCV replicon 1AY93H; [6]): 2 pM
- IC50 (HCV replicon 1A; Hepatitis C virus, replicon 1A): 1.3 pM
- IC50 (HCV replicon 2B; read-out: 2B IC50, replicon 2B): 2 pM
- IC50 (HCV replicon 1AQ30D; [7]): 0.011 nM
- IC50 (HCV replicon 1B; replicon 1B): 1.5 pM

Structure (SMILES): COC(=O)NC(C(=O)N1CCC[C@H]1c1ncc(-c2ccc3c(c2)cc2n3C(c3ccc(C(F)F)s3)Oc3cc(-c4cnc([C@@H]5CCCN5C(=O)[C@@H](NC(=O)OC)C(C)C)[nH]4)cc(F)c3-2)[nH]1)C1C[C@@H](C)O[C@@H](C)C1 (single isomer, unassigned) [Compound 266]
- IC50 (HCV replicon 1AY93H; [6]): 3 pM
- IC50 (HCV replicon 1A; Hepatitis C virus, replicon 1A): 1.1 pM
- IC50 (HCV replicon 2B; read-out: 2B IC50, replicon 2B): 8 pM
- IC50 (HCV replicon 1AQ30D; [7]): 0.051 nM
- IC50 (HCV replicon 1B; Hepatitis C virus, replicon 1B): 1.5 pM

Structure (SMILES): COC(=O)N[C@H](C(=O)N1CCC[C@@H]1c1cnc(-c2cc(F)c3c(c2)OC(c2ccc(C4(O)CC4)s2)n2c-3cc3cc(-c4ncc([C@@H]5CCCN5C(=O)[C@@H](NC(=O)OC)C(C)C)[nH]4)ccc32)[nH]1)C(C)C (some centres unmarked) [Compound 61]
- IC50 (HCV replicon 1AY93H; [8]): 14 pM
- IC50 (HCV replicon 1A; replicon 1A): 1.1 pM
- IC50 (HCV replicon 2B; replicon 2B, read-out: 2B IC50): 12 pM
- IC50 (HCV replicon 1AQ30D; [9]): 0.22 nM
- IC50 (HCV replicon 1B; replicon 1B): 1.1 pM

Structure (SMILES): CCc1ccc(C2Oc3cc(-c4cnc([C@@H]5CCCN5C(=O)C(NC(=O)OC)C5CCOC(C)(C)C5)[nH]4)cc(F)c3-c3cc4cc(-c5cnc([C@@H]6CCCN6C(=O)C(NC(=O)OC)C6CCOC(C)(C)C6)[nH]5)ccc4n32)s1 (single isomer, unassigned) [Compound 295]
- IC50 (HCV replicon 1AY93H; [6]): 5 pM
- IC50 (HCV replicon 1A; replicon 1A): 3.2 pM
- IC50 (HCV replicon 2B; read-out: 2B IC50, replicon 2B): 4 pM
- IC50 (HCV replicon 1AQ30D; [10]): 0.017 nM
- IC50 (HCV replicon 1B; replicon 1B): 2.8 pM

Structure (SMILES): COC(=O)N[C@H](C(=O)N1CCC[C@H]1c1ncc(-c2cc(F)c3c(c2)OC(c2ccc(C(C)C)s2)n2c-3cc3cc(-c4cnc([C@@H]5CCCN5C(=O)[C@@H](NC(=O)OC)C(C)C)[nH]4)ccc32)[nH]1)C(C)C (single isomer, unassigned) [Compound 36]
- IC50 (HCV replicon 1AY93H; [8]): 6 pM
- IC50 (HCV replicon 1A; replicon 1A): 1.7 pM
- IC50 (HCV replicon 2B; replicon 2B, read-out: 2B IC50): 53 pM
- IC50 (HCV replicon 1AQ30D; [9]): 0.19 nM
- IC50 (HCV replicon 1B; replicon 1B): 1.1 pM

Structure (SMILES): COC(=O)NC(C(=O)N1CCC[C@H]1c1ncc(-c2ccc3c(c2)cc2n3C(c3cc4ccccc4s3)Oc3cc(-c4cnc([C@@H]5CCCN5C(=O)[C@@H](NC(=O)OC)C5CCOCC5)[nH]4)cc(F)c3-2)[nH]1)C(C)(C)F (single isomer, unassigned) [Compound 185]
- IC50 (HCV replicon 1AY93H; [6]): 2400 pM
- IC50 (HCV replicon 1A; replicon 1A): 4.6 pM
- IC50 (HCV replicon 2B; read-out: 2B IC50, replicon 2B): 1350 pM
- IC50 (HCV replicon 1AQ30D; [10]): 2.95 nM
- IC50 (HCV replicon 1B; replicon 1B): 2.6 pM

Structure (SMILES): COC(=O)N[C@H](C(=O)N1CCC[C@H]1c1ncc(-c2cc(C)c3c(c2)OC(c2ccc(C4CC4)s2)n2c-3cc3cc(-c4cnc([C@@H]5CCCN5C(=O)[C@@H](NC(=O)OC)C(C)C)[nH]4)ccc32)[nH]1)C(C)C (single isomer, unassigned) [Compound 751]
- IC50 (HCV replicon 1AY93H; read-out: 1A Y93H IC50, HCV replicon 1A Y93H): 510 pM
- IC50 (HCV replicon 1A; HCV replicon 1A): 3.3 pM
- IC50 (HCV replicon 2B; read-out: 2B IC50, HCV replicon 2B): 27 pM
- IC50 (HCV replicon 1AQ30D; [4]): 0.996 nM
- IC50 (HCV replicon 1B; HCV replicon 1B): 29 pM

Structure (SMILES): COC(=O)N[C@H](C(=O)N1CCC[C@H]1c1ncc(-c2cc(F)c3c(c2)OC(c2ccc(C4CC4)s2)n2c-3cc3cc(-c4cnc([C@@H]5C[C@@H](F)CN5C(=O)[C@@H](NC(=O)OC)C(C)C)[nH]4)ccc32)[nH]1)C(C)C (some centres unmarked) [Compound 757]
- IC50 (HCV replicon 1AY93H; [1]): 13 pM
- IC50 (HCV replicon 1A; [2]): 2.7 pM
- IC50 (HCV replicon 2B; [3]): 2400 pM
- IC50 (HCV replicon 1AQ30D; [4]): 2.85 nM
- IC50 (HCV replicon 1B; [5]): 3 pM

Structure (SMILES): COC(=O)N[C@H](C(=O)N1CCC[C@H]1c1ncc(-c2cc(F)c3c(c2)OC(c2ccc(C4CC4)s2)n2c-3cc3cc(-c4cnc([C@@H]5C[C@H]6C[C@H]6N5C(=O)[C@@H](NC(=O)OC)C5CCOCC5)[nH]4)ccc32)[nH]1)C(C)C (single isomer, unassigned) [Compound 652]
- IC50 (HCV replicon 1AY93H; HCV replicon 1A Y93H, read-out: 1A Y93H IC50): 33.1 pM
- IC50 (HCV replicon 1A; HCV replicon 1A): 1.2 pM
- IC50 (HCV replicon 2B; HCV replicon 2B, read-out: 2B IC50): 53.2 pM
- IC50 (HCV replicon 1AQ30D; HCV replicon 1A Q30D, read-out: 1A Q30D IC50): 0.327 nM
- IC50 (HCV replicon 1B; HCV replicon 1B): 1.7 pM
